{
  "source": "patent US20210401863A1",
  "about": "“TREATMENT AND PREVENTION OF NEISSERIA GONORRHOEAE INFECTION USING CMP-ACTIVATED NONULOSONATE ANALOG COMPOUNDS” (NATIONAL RESEARCH COUNCIL OF CANADA, priority 2015, published 2021)",
  "key": {"N. gonorrhoeae F62 ΔlgtD [1]": {"system": "N. gonorrhoeae F62 ΔlgtD", "assay_type": "cell-based, Neisseria gonorrhoeae", "method": "Generally, bacteria (F62 ΔlgtD) grown overnight on chocolate agar plates were suspended in gonococcal liquid media supplemented with IsoVitaleX [29] that contained specified concentrations of the CMP-nonulosonate. Bacteria were then incubated at 37° C. for the period specified in each experiment.\nSerum bactericidal assays were performed as follows, similar to methods outlined in [32,33] and in U.S. Pat. No. 9,765,106. Bacteria were harvested from an overnight culture on chocolate agar plates and ˜10^5 CFU of Ng were grown in liquid media containing the concentrations of CMP-NuIO as specified for each experiment. Bacteria were diluted in Morse A and ˜2000 CFU of Ng F62 ΔlgtD were incubated with NHS (concentration specified for each experiment). The final reaction volumes were maintained at 150 μL. Aliquots of 25 μL of reaction mixtures were plated onto chocolate agar in duplicate at the beginning of the assay (t0) and again after incubation at 37° C. for 30 minutes (t30). Survival was calculated as the number of viable colonies at t30 relative to t0.\nAddition of a terminal Neu5Ac residue to the LNnT LOS of N. gonorrhoeae that occurs in vivo or following the addition of CMP-Neu5Ac to growth media results in resistance to complement-dependent killing. We next determined the effects of LNnT incorporation of KDN on the ability of N. gonorrhoeae F62 ΔlgtD to resist complement-dependent killing by normal human sera at concentrations of 3.3% or 10%. Bacteria were grown either in media alone, or media supplemented with 20 μg/mL of CMP-Neu5Ac or CMP-KDN. In addition, CMP-NulO competition experiments were also performed with CMP-Neu5Ac, CMP-Leg5Ac7Ac and CMP-KDN at CMP-NulO concentrations of either 20 μg/mL or 2 μg/mL as indicated, where the second CMP-NulO was added 15 minutes after the first (Table 1 below). To note, these CMP-NulO competition experiments are a method to examine the ability of select CMP-NulOs to counter the enhanced serum resistance due to CMP-Neu5Ac addition, providing information on their therapeutic potential (as any potential therapeutic will be required to compete with CMP-Neu5Ac in vivo)."}, "[2]": {"target": "T1, gonococcal LOS sialyltransferase (Lst) (Neisseria gonorrhoeae, UniProt P72074)", "T1 construct": "CMP-KDN served as a substrate for gonococcal Lst in the context of live bacteria; endogenous in cells; host or cells: N. gonorrhoeae F62 ΔlgtD (live bacteria)", "T1 sequence (P72074 whole entry)": "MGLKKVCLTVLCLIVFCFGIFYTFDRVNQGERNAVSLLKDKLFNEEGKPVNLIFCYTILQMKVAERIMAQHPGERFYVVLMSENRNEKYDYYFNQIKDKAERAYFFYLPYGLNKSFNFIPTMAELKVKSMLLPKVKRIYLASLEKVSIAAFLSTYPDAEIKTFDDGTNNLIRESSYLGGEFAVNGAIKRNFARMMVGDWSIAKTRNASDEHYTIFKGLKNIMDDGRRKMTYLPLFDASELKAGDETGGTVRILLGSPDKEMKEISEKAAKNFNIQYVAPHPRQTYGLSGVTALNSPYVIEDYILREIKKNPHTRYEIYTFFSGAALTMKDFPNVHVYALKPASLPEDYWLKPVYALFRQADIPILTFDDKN", "experiment": "mAb 3F11 binding by flow cytometry (incorporation of NulO on LNnT LOS by Lst)", "assay_type": "cell-based, N. gonorrhoeae F62 ΔlgtD", "details": "F62 ΔlgtD grown in media with 20 μg/mL CMP-NulO", "method": "FIG. 1: CMP-KDN serves as a substrate for gonococcal LOS and incorporation of KDN on gonococcal lacto-N-neotetraose LOS enhances factor H (FH) binding. A. Incorporation of KDN by gonococci. Gonococcal strain F62 ΔlgtD (expresses lacto-N-neotetraose (LNnT) from Hepl) was grown in media containing CMP-KDN (20 μg/mL) and binding of mAb 3F11 was measured by flow cytometry. mAb 3F11 binds only to […] LNnT; substitution of the terminal Gal of LNnT, for example with a NulO, will decrease mAb 3F11 binding. Approximately 5×10^7 bacteria were incubated with mAb 3F11 tissue culture supernatants for 15 minutes at 37° C. Binding of mAb 3F11 was disclosed with anti-mouse IgM FITC (Sigma; dilution of 1:100). Bacteria grown in CMP-Neu5Ac or in media alone were used as positive and negative controls for sialylation, respectively. A representative histogram is shown in the upper panel. […] B. Factor H (FH) binding to gonococci grown in CMP-KDN. Approximately 5×10^7 bacteria grown in media alone (no sialic acid), media plus CMP-Neu5Ac (20 μg/mL; positive control for FH binding) or in media containing CMP-KDN (20 μg/mL) were incubated with purified human FH (20 μg/mL) in HBSS** for 15 minutes at 37° C. and bound FH was detected with affinity isolated goat anti-human FH followed by anti-goat IgG FITC (Sigma; 1:100 dilution). A representative histogram is shown in the upper panel.\nFIG. 3: CMP-KDN7N3 serves as a substrate for gonococcal Lst resulting in incorporation of KDN7N3 on gonococcal lacto-N-neotetraose (LNnT) LOS—Incorporation of KDN7N3 by gonococci. Gonococcal strain F62ΔlgtD (expresses lacto-N-neotetraose (LNnT) from Hepl) was grown in media containing CMP-KDN7N3 (20 μg/mL) and binding of mAb 3F11 was measured by flow cytometry. mAb 3F11 binds only to […] LNnT; substitution of the terminal Gal of LNnT, for example with a NulO, will decrease mAb 3F11 binding. Approximately 5×10^7 bacteria were incubated with mAb 3F11 tissue culture supernatants for 15 minutes at 37° C. Binding of mAb 3F11 was disclosed with anti-mouse IgM FITC (Sigma; dilution of 1:100). […]"}, "purified human FH [3]": {"system": "purified human FH", "experiment": "Factor H (FH) binding to gonococci by flow cytometry", "assay_type": "cell-based", "details": "F62 ΔlgtD grown with 20 μg/mL CMP-NulO, human FH 20 μg/mL", "method": "FIG. 1: CMP-KDN serves as a substrate for gonococcal LOS and incorporation of KDN on gonococcal lacto-N-neotetraose LOS enhances factor H (FH) binding. A. Incorporation of KDN by gonococci. Gonococcal strain F62 ΔlgtD (expresses lacto-N-neotetraose (LNnT) from Hepl) was grown in media containing CMP-KDN (20 μg/mL) and binding of mAb 3F11 was measured by flow cytometry. mAb 3F11 binds only to […] LNnT; substitution of the terminal Gal of LNnT, for example with a NulO, will decrease mAb 3F11 binding. Approximately 5×10^7 bacteria were incubated with mAb 3F11 tissue culture supernatants for 15 minutes at 37° C. Binding of mAb 3F11 was disclosed with anti-mouse IgM FITC (Sigma; dilution of 1:100). Bacteria grown in CMP-Neu5Ac or in media alone were used as positive and negative controls for sialylation, respectively. A representative histogram is shown in the upper panel. […] B. Factor H (FH) binding to gonococci grown in CMP-KDN. Approximately 5×10^7 bacteria grown in media alone (no sialic acid), media plus CMP-Neu5Ac (20 μg/mL; positive control for FH binding) or in media containing CMP-KDN (20 μg/mL) were incubated with purified human FH (20 μg/mL) in HBSS** for 15 minutes at 37° C. and bound FH was detected with affinity isolated goat anti-human FH followed by anti-goat IgG FITC (Sigma; 1:100 dilution). A representative histogram is shown in the upper panel. […]"}, "N. gonorrhoeae H041": {"system": "N. gonorrhoeae H041", "experiment": "BALB/c mouse vaginal colonization model", "assay_type": "in vivo", "details": "10 μg intravaginally daily; Premarin treated BALB/c mice", "method": "FIG. 2: Female BALB/c mice 5-6 weeks of age (Jackson Laboratories) in the diestrus phase of the estrous cycle were started on treatment (that day) with 0.5 mg of Premarin (Pfizer) given subcutaneously on each of three days; −2, 0 and +2 days (before, the day of and after inoculation) to prolong the estrus phase of the cycle and promote susceptibility to N. gonorrhoeae infection. Antibiotics (vancomycin, colistin, neomycin, trimethoprim and streptomycin) that were ineffective against N. gonorrhoeae were also used to reduce competitive microflora. Mice (n=40) were then infected with 10^6 CFU of strain H041. Three groups of mice (n=10/group) were treated with 10 μg intravaginally daily (first dose was administered 30 minutes before the introduction of bacteria) with one of the following CMP-NulOs in normal saline: CMP-Leg5Ac7Ac, CMP-Neu5Ac9Az or CMP-KDN. A fourth group (n=10) was given saline (vehicle control). Vaginal swabs were obtained daily from each animal, serially diluted and plated on chocolate agar containing vancomycin, colistin, neomycin, trimethoprim and streptomycin (VCNTS) to quantify bacterial loads. A. Median time to clearance was estimated using Kaplan-Meier survival curves; the times to clearance were compared between groups using a log-rank test. P<0.0001 for the control versus each of the treatment groups. Time to clearance between each of the treatment groups was similar (P>0.05). B. The mean area under the curve (log10 CFU vs. time) was computed for each mouse to estimate the bacterial burden over time (cumulative infection); the means under the curves were compared between groups using the Kruskal-Wallis nonparametric rank sum test because distributions were skewed or kurtotic. Groups were compared using Dunn's multiple comparison test. ****, P<0.0001; **, P<0.01; *, P<0.05. The differences among the groups that received CMP-NulOs were not significant.\nThe mouse model experiments and statistical analysis were conducted as described in the art and in U.S. Pat. No. 9,765,106. […]"}, "N. gonorrhoeae F62 ΔlgtD [4]": {"system": "N. gonorrhoeae F62 ΔlgtD", "details": "from U.S. patent application Ser. No. 14/627,396; cited from earlier work"}, "[5]": {"target": "T1, gonococcal LOS sialyltransferase (Lst)", "details": "from U.S. patent application Ser. No. 14/627,396; cited from earlier work"}, "purified human FH [6]": {"system": "purified human FH", "details": "from U.S. Pat. No. 9,765,106 / Ser. No. 14/627,396; cited from earlier work"}, "[7]": {"details": "CMP-Neu5Ac (20 μg/mL) first, labelled CMP-NulO (20 μg/mL) added 15 minutes later"}, "[8]": {"details": "labelled CMP-NulO (20 μg/mL) first, CMP-Neu5Ac (2 μg/mL) added 15 minutes later"}, "[9]": {"details": "labelled CMP-NulO (20 μg/mL) first, CMP-Neu5Ac (20 μg/mL) added 15 minutes later"}},
  "note": "Like-named read-outs stand apart in the source and are kept apart here.",
  "data": [
    {"smiles": "CC(=O)N[C@H]1[C@H]([C@H](O)[C@H](O)CO)O[C@](OP(=O)(O)OC[C@H]2O[C@@H](n3ccc(N)nc3=O)[C@H](O)[C@@H]2O)(C(=O)O)C[C@@H]1O", "note": "[CMP-Neu5Ac]", "values": [
      {"measurement": "% survival in 10% serum", "setting": "N. gonorrhoeae F62 ΔlgtD [1]; Table 1, CMP-NulO 20 μg/mL alone", "result": 115, "unit": "%"},
      {"measurement": "% survival in 3.3% serum", "setting": "N. gonorrhoeae F62 ΔlgtD [1]; Table 5, CMP-NulO 20 μg/mL", "result": 133.03, "unit": "%"},
      {"measurement": "% survival in 10% serum", "setting": "N. gonorrhoeae F62 ΔlgtD [1]; Table 5, CMP-NulO 20 μg/mL", "result": 129.02, "unit": "%"},
      {"measurement": "binding of mAb 3F11 (use as substrate by gonococcal Lst)", "setting": "[2]", "result": "decreased binding of mAb 3F11 similarly"},
      {"measurement": "fH binding to bacteria", "setting": "purified human FH [3]", "result": "Maximal fH binding"}
    ]},
    {"smiles": "CC(=O)N[C@@H]([C@@H]1O[C@](OP(=O)(O)OC[C@H]2O[C@@H](n3ccc(N)nc3=O)[C@H](O)[C@@H]2O)(C(=O)O)C[C@H](O)[C@H]1NC(C)=O)[C@@H](C)O", "note": "[CMP-Leg5Ac7Ac]", "values": [
      {"measurement": "% survival in 3.3% serum", "setting": "N. gonorrhoeae F62 ΔlgtD [1]; [7]", "result": 9, "unit": "%"},
      {"measurement": "% survival in 10% serum", "setting": "N. gonorrhoeae F62 ΔlgtD [1]; [7]", "result": 5, "unit": "%"},
      {"measurement": "countering of serum resistance mediated by CMP-Neu5Ac (competition, in words)", "setting": "N. gonorrhoeae F62 ΔlgtD [1]; CMP-NulO competition, second CMP-NulO 15 minutes after the first, 3.3% and 10% serum", "result": "blocked serum resistance mediated by CMP-Neu5Ac at both 3.3% and 10% serum concentrations irrespective of the order of addition"},
      {"measurement": "% survival in 3.3% serum", "setting": "N. gonorrhoeae F62 ΔlgtD [1]; [8]", "result": 6, "unit": "%"},
      {"measurement": "% survival in 10% serum", "setting": "N. gonorrhoeae F62 ΔlgtD [1]; [8]", "result": 6, "unit": "%"},
      {"measurement": "% survival in 3.3% serum", "setting": "N. gonorrhoeae F62 ΔlgtD [1]; [9]", "result": 7, "unit": "%"},
      {"measurement": "% survival in 10% serum", "setting": "N. gonorrhoeae F62 ΔlgtD [1]; [9]", "result": 3, "unit": "%"},
      {"measurement": "attenuation of N. gonorrhoeae H041 infection", "setting": "N. gonorrhoeae H041", "result": "significantly attenuated"},
      {"measurement": "serum resistance / serum-mediated killing (earlier results)", "setting": "N. gonorrhoeae F62 ΔlgtD [4]", "result": "enhanced serum-mediated killing"},
      {"measurement": "substrate for gonococcal LOS sialyltransferase (Lst) (earlier results)", "setting": "[5]", "result": "can serve as substrates for gonococcal LOS sialyltransferase (Lst)"},
      {"measurement": "fH binding to bacteria (earlier results)", "setting": "purified human FH [6]", "result": "not enhance fH binding above levels seen with an unsialylated F62 ΔlgtD control"}
    ]}
  ]
}
